Measurements reported in patent US20240228607A9, “METHODS FOR TREATING HIGH RISK MYELODYSPLASTIC SYNDROMES” (Northwestern University, priority 2022, published 2024).
Entries after “also recorded” stand apart in the source; their conditions may differ.

Tests used:
p-STAT3 = test: Western blot of p-STAT3 in MDSL cells challenged with human recombinant IL-6; format: cell-based; details: 1 hour treatment, then human recombinant IL-6 10 ng/mL for 15 min, vs IgG
Description: (§1) (A) Cultured MDS-derived cell line (MDSL) cells were treated with tocilizumab or IgG for 1 hour at the indicated concentration. Cells were then challenged with human recombinant IL-6 (10 ng/mL) for 15 min followed by a western blot assay of p-STAT3. Actin was used as a loading control. (B) 1×10^4/well MDSL cells were seeded in a 96-well plate on day 0 in MDSL culture medium with 50 μg/mL tocilizumab or 50 μg/mL human IgG control. Relative cell number was assessed with CCK-8 reagent at the indicated time points. (C) 1×10^6 MDSL cells were transplanted into sub-lethally irradiated NSG recipient mice. 10 days after transplantation, mice were subjected to weekly treatment with tocilizumab (TCZ) or human IgG (8 mg/kg) by intraperitoneal administration. Engraftment was evaluated 60 days post transplantation via flow cytometry assays of hCD45+ mononuclear cells in the peripheral blood. N=5 in each group, data are presented as Mean±SD. (D) Quantification of the percentage of hCD45+ cells in C. (E-F) Colony-forming unit (CFU) assays in normal (E) and high risk MDS patient (F) bone marrow derived CD34+ cells. 1×10^3 normal (E) or 2×10^3 patient CD34+ cells (F) were seeded in MethoCult medium supplemented with human IgG or tocilizumab (50 μg/mL) on day 0. The number of colonies was accessed on day 14. Triplicate assay colonies were independently identified by two individuals. […]

MDSL cells [1] = test: MDSL cell proliferation (CCK-8); format: cell-based; details: 50 μg/mL, vs human IgG control
Description: as §1

MDSL cells [2] = test: Cell death in MDSL cells; format: cell-based, human
MDSL cells [3] = test: Xenograft of MDSL cells in NSG mice; format: in vivo, mouse; details: 8 mg/kg weekly intraperitoneal; for spleen weight: NSG mice transplanted with MDSL cells
Description: (A) Cultured MDS-derived cell line (MDSL) cells were treated with tocilizumab or IgG for 1 hour at the indicated concentration. Cells were then challenged with human recombinant IL-6 (10 ng/mL) for 15 min followed by a western blot assay of p-STAT3. Actin was used as a loading control. (B) 1×10^4/well MDSL cells were seeded in a 96-well plate on day 0 in MDSL culture medium with 50 μg/mL tocilizumab or 50 μg/mL human IgG control. Relative cell number was assessed with CCK-8 reagent at the indicated time points. (C) 1×10^6 MDSL cells were transplanted into sub-lethally irradiated NSG recipient mice. 10 days after transplantation, mice were subjected to weekly treatment with tocilizumab (TCZ) or human IgG (8 mg/kg) by intraperitoneal administration. Engraftment was evaluated 60 days post transplantation via flow cytometry assays of hCD45+ mononuclear cells in the peripheral blood. N=5 in each group, data are presented as Mean±SD. (D) Quantification of the percentage of hCD45+ cells in C. (E-F) Colony-forming unit (CFU) assays in normal (E) and high risk MDS patient (F) bone marrow derived CD34+ cells. 1×10^3 normal (E) or 2×10^3 patient CD34+ cells (F) were seeded in MethoCult medium supplemented with human IgG or tocilizumab (50 μg/mL) on day 0. The number of colonies was accessed on day 14. Triplicate assay colonies were independently identified by two individuals. Data are presented as Mean±SD. E, G, M, GM, and GEMM represent BFU/CFU-E, CFU-G, CFU-M, CFU-GM, and CFU-GEMM, respectively, in both E and F.
NOD/SCID-IL2Rg mice (NSG) mice were purchased from the Jackson Laboratory (Stock #005557). 1×10^6 of MDS-derived cell line (MDSL) cells were retro-orbitally injected into 12-week-old sub-lethally irradiated (250 rad) female NSG mice. Ten days after transplantation, human IgG isotype control (BE0297, InVivoMab) or tocilizumab (Selleck) were administered at 8 mg/kg weekly via intraperitoneal injection. To evaluate the engraftment, peripheral blood was collected from tail vein on day 60. […]

[4] = system: normal bone marrow CD34+ cells; test: Colony-forming unit (CFU) assay, normal bone marrow CD34+ cells; format: cell-based; details: 50 μg/mL, day 14, vs human IgG
Description: as §1, with “C.” for “C. (E-F) Colony-forming unit (CFU) assays in normal (E) and high risk MDS patient (F) bone marrow derived CD34+ cells. 1×10^3 normal (E) or 2×10^3 patient CD34+ cells (F) were seeded in MethoCult medium supplemented with human IgG or tocilizumab (50 μg/mL) on day 0. The number of colonies was accessed on day 14. Triplicate assay colonies were independently identified by two individuals.”
(§2) For the CFU assay, CD34+ cells were thawed in a 37° C. water bath. […] Cell viability was assessed with trypan blue staining and counted with Bio-Rad TC20 cell counter. […] 14 days after seeding, the CFU assay was ready for evaluation. Colonies were counted under an inverted microscope (EVOS M5000, Thermo Fisher), and the colonies were identified by two independent individuals.

[5] = system: high risk MDS patient bone marrow derived CD34+ cells; test: Colony-forming unit (CFU) assay, high risk MDS patient bone marrow CD34+ cells; format: cell-based; details: CD34+ cells from high risk MDS patients, 50 μg/mL, day 14, vs human IgG
Description: as §1, with “C.” for “C. (E-F) Colony-forming unit (CFU) assays in normal (E) and high risk MDS patient (F) bone marrow derived CD34+ cells. 1×10^3 normal (E) or 2×10^3 patient CD34+ cells (F) were seeded in MethoCult medium supplemented with human IgG or tocilizumab (50 μg/mL) on day 0. The number of colonies was accessed on day 14. Triplicate assay colonies were independently identified by two individuals.”
as §2

[6] = transfusion-dependent patients, low or intermediate-1-risk MDS, vs placebo; cited from earlier work

Molecule	p-STAT3 (p-STAT3)	cell proliferation (relative cell number, CCK-8) (MDSL cells [1])	cell death (MDSL cells [2])	spleen weight (MDSL cells [3])	spleen weight (MDSL cells [3]; listed as Tocilizumab)	MDSL engraftment (hCD45+ mononuclear cells in the peripheral blood) (MDSL cells [3]; NSG mice, 60 days post transplantation, vs human IgG)	colony expansion or composition / colony numbers [4]	colony expansion or composition / colony numbers ([4]; listed as Tocilizumab)	colony numbers / clonogenicity [5]	colony numbers / clonogenicity ([5]; listed as Tocilizumab)	RBC transfusions [6]
tocilizumab	significant reduction	decreased cell proliferation; also recorded: reduces cell proliferation	partial induction of cell death; also recorded: partially induces cell death	reduces spleen weight	reduced the spleen weight	significantly reduced MDSL engraftment; also recorded: markedly reduced the engraftment	no effects on the colony numbers	did not affect colony expansion or composition	markedly reduced; also recorded: reduces cell proliferation and colony formation; also recorded: reduces the colony numbers	significantly reduced clonogenicity	–
siltuximab (antibody, chains of the INN, looked up, V domains shown) VH: EVQLVESGGKLLKPGGSLKLSCAASGFTFSSFAMSWFRQSPEKRLEWVAEISSGGSYTYYPDTVTGRFTISRDNAKNTLYLEMSSLRSEDTAMYYCARGLWGYYALDYWGQGTSVTVSS VL: QIVLIQSPAIMSASPGEKVTMTCSASSSVSYMYWYQQKPGSSPRLLIYDTSNLASGVPVRFSGSGSGTSYSLTISRMEAEDAATYYCQQWSGYPYTFGGGTKLEIK	–	–	–	–	–	–	–	–	–	–	no reduction in RBC transfusions
